From patent US11045452B2, “Composition for preventing or treating cancer comprising a vascular disrupting agent and immune checkpoint inhibitor” (CHONG KUN DANG PHARMACEUTICAL CORP., priority 2017, dated 2021)

Tests used:
[1] = tested on: MC38, a mouse colorectal cancer cell line; experiment: MC38 cancer animal model, Formula 1 with anti-PD-1 / anti-CTLA-4 antibody (Example 2); assay type: in vivo, C57BL/6 mouse
Method: (§1) MC38 (8×10^4 cell), a mouse colorectal cancer cell line, was subcutaneously transplanted to a C57BL/6 mouse. When a size of cancer reaches 40-60 mm^3, a vehicle or 5 mg/kg of the compound of the Formula 1 was intraperitoneally injected into the mouse twice a week. Also, 1 ug/uL (200 ug/200 uL/mouse) of an anti-PD-1 antibody, an anti-CTLA-4 antibody or both thereof (purchased from BioXCell) was intraperitoneally injected into the mouse twice a week, in one day after administering a vehicle or the compound of the Formula 1. A size of cancer and a weight were measured twice a week.

[2] = tested on: MC38, a mouse colorectal cancer cell line; experiment: MC38 cancer animal model, Formula 1 with anti-PD-L1 antibody (Example 3); assay type: in vivo, C57BL/6 mouse; conditions: FIG. 7
Method: as §1, with “anti-PD-L1” for “anti-PD-1 antibody, an anti-CTLA-4”, “antibody” for “antibody or both thereof (purchased from BioXCell)”

[3] = tested on: mouse bone marrow-derived dendritic cells (BM-DC); experiment: Measurement of cytokines produced by dendritic cells (immunoassay kit); assay type: cell-based; conditions: 24 hours, cell culture medium, all groups administered, FIG. 4
Method: (§2) Mouse bone marrow-derived dendritic cells (BM-DC) were obtained from a femur of BALB/c or C57BL/6 mouse. The cells were kept with Dulbecco's modified Eagle medium (DMEM) containing 40 ng/mL of rmGM-CSF (JW Creagene, Sungnam, Korea) and 20 ng/mL of rmIL-4 (JW CreaGene), and containing 10% heat-inactivated FBS (Hyclone), 100 U/ml of penicillin, 100 μg/ml of streptomycin (Hyclone) and 50 μM of 2-mercaptoethanol (Sigma-Aldrich, Inc., St. Louis, Mo., USA).
(§3) A compound of a Formula 2 (Compound 2), which was an active metabolite of the compound of the Formula 1, was dissolved in DMSO, and diluted with a medium of the mouse bone marrow-derived dendritic cells so as to prepare active compound.
To identify a change in secretion of cytokines, the mouse bone marrow-derived dendritic cells were treated with the compound of the Formula 2 for 24 hours, and then the cytokines were measured by using a cell culture medium. An immunoassay kit (R&D system) was used for measuring cytokines, and thus IL-1β, IL-6 and IL-12 were measured.
(§4) A statistical significance between a control group and a treated group was verified by using student t-test.

[4] = tested on: mouse bone marrow-derived dendritic cells (BM-DC); experiment: Measurement of phagocytosis of dendritic cells (FITC OVA-microsphere, flow cytometer); assay type: cell-based; conditions: 100 nM, 18 hours, then FITC OVA-microsphere 2 hours, FIG. 5
Method: as §2, §3
To identify phagocytosis of dendritic cells, the mouse bone marrow-derived dendritic cells (2×10^6/well) were treated with 100 nM of the compound of the Formula 2 for 18 hours, and then added with OVA-microsphere containing ovalbumin tagged with fluorescein isothiocyanate (FITC), so as to be cultured for 2 hours. Completely cultured cells were washed with PBS, and then the cells were collected, fixed with paraformaldehyde, and analyzed with a flow cytometer.
as §4

[5] = tested on: mouse bone marrow-derived dendritic cells (BM-DC); experiment: Identification of phenotype of dendritic cells (flow cytometry of cell surface markers); assay type: cell-based; conditions: 24 hours
Method: as §2, §3
To identify a phenotype of dendritic cells, the mouse bone marrow-derived dendritic cells were treated with the compound of the Formula 2 for 24 hours, and then were dyed with an antibody (antibody to anti-mouse CD80, anti-mouse CD86 or anti-mouse MHC II) to a cell surface marker of the mouse bone marrow-derived dendritic cells as well as an isotype control antibody. Flow cytometry was performed by using FACS Canto II flow cytometer (Becton Dickinson).
as §4

Row | Compound | therapeutic potential in combination with the anti-CTLA-4 antibody ([1]; Formula 1 5 mg/kg i.p. + anti-CTLA-4 antibody 200 ug/mouse i.p., twice a week, FIG. 6) | therapeutic potential in combination with the anti-PD-1 antibody ([1]; Formula 1 5 mg/kg i.p. + anti-PD-1 antibody 200 ug/mouse i.p., twice a week, FIG. 6) | experimental animals in which cancer was completely eradicated ([1]; Formula 1 5 mg/kg i.p. + anti-PD-1 antibody and anti-CTLA-4 antibody, twice a week) | anti-cancer effect in combination with the anti-PD-1 antibody and the anti-CTLA-4 antibody ([1]; Formula 1 5 mg/kg i.p. + both antibodies i.p., twice a week, FIG. 6) | growth of cancer ([1]; single administration, Formula 1 5 mg/kg i.p. twice a week, antibody 200 ug/mouse i.p. twice a week, FIG. 6) | therapeutic potential in combination with the anti-PD-L1 antibody ([2]; Formula 1 5 mg/kg i.p. + anti-PD-L1 antibody 200 ug/mouse i.p., twice a week) | growth of cancer ([2]; single administration, Formula 1 5 mg/kg i.p. twice a week, antibody 200 ug/mouse i.p. twice a week) | IL-1β secretion [3] | IL-6 secretion [3] | IL-12 secretion [3] | phagocytosis of dendritic cells (fluorescence intensity) [4] | MHC II (phenotype of mature dendritic cells) expression ([5]; 100 nM, FIG. 3) | CD80 (mature dendritic cell marker) expression ([5]; 0.01, 0.1 and 1 μM, FIG. 1) | CD86 (mature dendritic cell marker) expression ([5]; 0.01, 0.1 and 1 μM, FIG. 2)
1 | COc1cc(C(=O)c2ccc(-c3csc(NC(=O)[C@@H](N)C(C)C)n3)cc2-n2cncn2)cc(OC)c1OC [Formula 1, (S)—N-(4-(3-(1H-1,2,4-triazole-1-yl)-4-(3,4,5-trimethoxybenzoyl)phenyl)thiazole-2-yl)-2-amino-3-methylbutanamide] | very high therapeutic potential with a synergy effect | very high therapeutic potential with a synergy effect | two of ten | most increased | remarkably inhibited | very high therapeutic potential with a synergy effect | remarkably inhibited | – | – | – | – | – | – | –
2 | COc1cc(C(=O)c2ccc(-c3csc(N)n3)cc2-n2cncn2)cc(OC)c1OC [Formula 2, (4-(2-aminothiazole-4-yl)-2-(1H-1,2,4-triazole-1-yl)phenyl)(3,4,5-trimethoxyphenyl)methanone] | – | – | – | – | – | – | – | increased | increased | increased | increased | increased | increased | increased
